# Data reported in patent US12469580B2, “In silico discovery of effective antimicrobials” (MASSACHUSETTS INSTITUTE OF TECHOLOGY, priority 2019, dated 2025).
# “Also recorded” adds a separate entry of the source.
# Assays:
# C. difficile 630 = assay: C. difficile mouse infection model; format: in vivo, C57BL/6 mice; conditions: for rate of C. difficile clearance from feces: halicin 15 mg/kg, metronidazole 50 mg/kg, vehicle 10% PEG 300
# [1] = test system: ciprofloxacin-resistant gyrA S83A mutant of BW25113; format: cell-based, E. coli
# E. coli [2] = format: cell-based
# [3] = test system: E. coli strains harboring plasmid-borne antibiotic-resistance genes; format: cell-based
# [4] = test system: E. coli, S. aureus, Klebsiella pneumoniae, A. baumannii, and P. aeruginosa; assay: ZINC15 compound validation, growth inhibition against a range of pathogens; format: cell-based; conditions: LB media
# [5] = test system: E. coli in a metabolically repressed, antibiotic-tolerant state; assay: Bacterial cell killing assay, E. coli in nutrient-free buffer (PBS); format: cell-based
# E. coli persister cells = assay: Killing of E. coli persister cells after ampicillin treatment; format: cell-based; conditions: cells that remained after treatment with ampicillin
# S. aureus USA300 = assay: Growth inhibition of S. aureus in pH-adjusted media; format: cell-based, Staphylococcus aureus
# MRSA = assay: Activity against MRSA; format: cell-based, Staphylococcus aureus
# M. tuberculosis = assay: Bacterial cell killing assay, M. tuberculosis in 7H9 media; format: cell-based, Mycobacterium tuberculosis; conditions: 16 μg/ml
# ΔnfsAΔnfsB E. coli = format: cell-based; conditions: deletion of nfsA and nfsB
# A. baumannii CDC 288 [6] = assay: A. baumannii mouse wound infection model; format: in vivo, Balb/c mice; conditions: halicin 0.5% w/v topical, 25 hours post-infection
# E. coli [7] = assay: Growth inhibition checkerboards of halicin in combination; format: cell-based
# M. tuberculosis H37Rv = assay: Growth inhibition of M. tuberculosis; format: cell-based; conditions: Mycobacterium tuberculosis, 7H9 medium, stated as 1×MIC
# C. difficile strain 630 = assay: Growth inhibition of C. difficile 630 in vitro; format: cell-based; conditions: Clostridioides difficile; C. difficile strain 630, in vitro
# E. coli BW25113 [8] = assay: Evolution of resistance (serial passage, spontaneous suppressor generation); format: cell-based; conditions: 30 days serial passaging in liquid media; seven days on solid media
# E. coli [9] = assay: Growth inhibition of E. coli in pH-adjusted or bicarbonate-supplemented media
# A. baumannii 288 cells = assay: Bacterial cell killing assay, A. baumannii CDC 288 in PBS; format: cell-based; conditions: metabolically repressed
# [10] = test system: Carbapenem-resistant Enterobacteriaceae (CRE) clinical isolates; format: cell-based
# [11] = test system: A. baumannii clinical isolates; assay: Growth inhibition of multidrug-resistant clinical isolates, A. baumannii; format: cell-based; conditions: 36 multidrug-resistant clinical isolates
# E. coli MC1061 = assay: DiSC3(5) assay, E. coli; format: cell-based; conditions: early-log cells in buffer
# E. coli [12] = format: cell-based; remark: listed apart in the source
# [13] = test system: Pseudomonas aeruginosa clinical isolates; assay: Growth inhibition of multidrug-resistant clinical isolates, P. aeruginosa; format: cell-based; conditions: 36 multidrug-resistant clinical isolates
# A. baumannii CDC 288 [14] = assay: Growth inhibition of pan-resistant A. baumannii CDC 288 in vitro; format: cell-based; conditions: Acinetobacter baumannii, CDC288, A. baumannii strain 288 (CDC)
# [15] = test system: daptomycin-resistant RN4220 strain (Δdsp1); format: cell-based, S. aureus
# E. coli BW25113 [16] = assay: Growth inhibition assay against E. coli; format: cell-based; conditions: Escherichia coli, rich growth conditions, read-out: minimum inhibitory concentration (MIC)
compound,measurement,setting,value
"Cc1ncc([N+](=O)[O-])n1CCO [Metronidazole, metronidazole, reference compound]",rate of C. difficile clearance from feces,C. difficile 630,did not result in enhanced rates of clearance relative to vehicle controls
"C[C@H]1CN(c2cc3c(cc2[N+](=O)[O-])c(=O)c(C(=O)O)cn3C2CC2)CCN1N=Nc1ccc(S(N)(=O)=O)cc1 [ZINC000100032716, 1-Cyclopropyl-7-[(3S)-3-methyl-4-[(4-sulfamoylphenyl)diazenyl]piperazin-1-yl]-6-nitro-4-oxoquinoline-3-carboxylic acid]",impact of chromosomal resistance,[1],only weakly impacted
same,smaller change in MIC between gyrA mutant and wildtype E. coli relative to ciprofloxacin,[1]; gyrA S83A vs BW25113,4 fold
same,bactericidal activity against E. coli,E. coli [2],bactericidal activity
same,activity against E. coli harboring resistance determinants,[3],overcome an array of common resistance determinants
same,impact of plasmid-borne fluoroquinolone resistance on MIC,[3],only weakly impacted; also recorded: minor increase in MIC
same,spectrum of growth inhibitory activity,[4],potent broad-spectrum activity
"CC1(C)S[C@@H]2[C@H](NC(=O)[C@H](N)c3ccccc3)C(=O)N2[C@H]1C(=O)O [ampicillin, reference compound]","bacterial cell killing, metabolically active E. coli",E. coli [2],efficacy against metabolically active cells
same,"bactericidal activity against metabolically repressed, antibiotic-tolerant E. coli",[5],unable to eradicate E. coli
"Nc1nnc(Sc2ncc([N+](=O)[O-])s2)s1 [halicin, 5-[(5-nitro-1,3-thiazol-2-yl)sulfanyl]-1,3,4-thiadiazol-2-amine]",eradication of E. coli persister cells,E. coli persister cells,able to eradicate E. coli persister cells
same,"potency as a function of media pH, Staphylococcus aureus",S. aureus USA300,halicin potency decreased as pH increased
same,activity against MRSA,MRSA,potent activity
same,bactericidal activity against M. tuberculosis,M. tuberculosis,rapidly bactericidal
same,change in MIC in nitrofurantoin-resistant E. coli,ΔnfsAΔnfsB E. coli,did not change
same,"bacterial load of wound tissue, one mouse",A. baumannii CDC 288 [6],≈ 10^5 CFU/g
same,"bacterial load of wound tissue, 5 of the 6 mice",A. baumannii CDC 288 [6]; below the limit of detection,less than 10^3 CFU/g
same,"bacterial cell killing, metabolically active E. coli",E. coli [2],bacterial cell killing was observed
same,interaction with kanamycin,E. coli [7]; checkerboard,synergized with kanamycin
same,interaction with tetracycline,E. coli [7]; checkerboard,antagonized the activity of tetracycline
same,interaction with Fe^3+ (FeCl3),E. coli [7]; increasing concentrations of environmental Fe^3+,enhanced potency of halicin
same,MIC,M. tuberculosis H37Rv,16 µg/mL
same,MIC,C. difficile strain 630,0.5 µg/mL
same,change in MIC in the presence of resistance gene relative to antibiotic-susceptible parent strains,[3],No change in halicin MIC
same,evolution of resistant mutants,E. coli BW25113 [8],not possible to isolate spontaneous suppressor mutants
same,"potency as a function of media pH, E. coli",E. coli [9],halicin potency decreased as pH increased
same,effect of sodium bicarbonate on growth inhibition,E. coli [9]; 25 mM sodium bicarbonate in growth medium,antagonized the action of halicin
same,killing of A. baumannii 288 in antibiotic-tolerant conditions,A. baumannii 288 cells,able to sterilize A. baumannii 288 cells
same,growth inhibition of CRE clinical isolates,[10],strong growth inhibitory activity
same,growth inhibition of A. baumannii clinical isolates,[11],strong growth inhibitory activity
same,"DiSC3(5) fluorescence change, E. coli",E. coli MC1061,immediate decrease in DiSC3(5) fluorescence in a dose-dependent manner
same,expression of cell motility genes,E. coli [12],rapid downregulation of genes involved in cell motility
same,expression of iron homeostasis genes,E. coli [12]; sub-lethal concentrations,upregulation of genes required for iron homeostasis
same,growth inhibition of P. aeruginosa clinical isolates,[13],lack of efficacy
same,MIC,A. baumannii CDC 288 [14],1 µg/mL
same,cross-resistance in daptomycin-resistant S. aureus,[15],did not confer cross-resistance to halicin
same,mice sterilized after 72 hours of treatment,C. difficile 630; 15 mg/kg gavage every 24 hours,3 out of 4
same,mice sterilized after 96 hours of treatment,C. difficile 630; 15 mg/kg gavage every 24 hours,4 out of 4
same,mice free of infection at 96 hours after treatment,"C. difficile 630; 15 mg/kg, n=4",100%
same,rate of C. difficile clearance from feces,C. difficile 630,clearance from feces at a greater rate than vehicle or the antibiotic metronidazole
same,"bactericidal activity against metabolically repressed, antibiotic-tolerant E. coli",[5],retained bactericidal activity against tolerant cells
same,MIC,E. coli BW25113 [16],2 µg/mL
polymyxin B [reference compound],"DiSC3(5) fluorescence change, E. coli",E. coli MC1061,corresponding increase in fluorescence
